Where a name gives a salt, the structure may show the parent alone.
Target: SARS-CoV-2 Mac1 (Severe acute respiratory syndrome coronavirus 2, UniProt P0DTD1)
Experiment: biochemical
Details: for inhibition at 100 µM: read-out: %inhibition; for %inhibition: 100 µM, inhibitor

Row | SMILES | inhibition at 100 µM [%] | %inhibition [%]
1 | CC(=O)OCC(COC(C)=O)OC(C)=O [Triacetin] | 3.58 | 
2 | CC1(C)O[C@@H]2C[C@H]3[C@@H]4CCC5=CC(=O)C=C[C@]5(C)[C@@]4(F)[C@@H](O)C[C@]3(C)[C@]2(C(=O)CO)O1 [Triamcinolone Acetonide] | 0 | 
3 | C[C@]12C=CC(=O)C=C1CC[C@H]1[C@@H]3C[C@@H](O)[C@](O)(C(=O)CO)[C@@]3(C)C[C@H](O)[C@@]12F [Triamcinolone] | 16.5 | 
4 | Nc1nc(N)c2nc(-c3ccccc3)c(N)nc2n1 [Triamterene] | 4.22 | 
5 | COc1cc(C(=O)NCc2ccc(OCCN(C)C)cc2)cc(OC)c1OC [Tribenzagan Hydrochloride] | 0 | 
6 | NS(=O)(=O)c1cc2c(cc1Cl)NC(C(Cl)Cl)NS2(=O)=O (stereo not shown) [Trichlormethiazide] | 0 | 
7 | CSc1nc2cc(Cl)c(Oc3cccc(Cl)c3Cl)cc2[nH]1 [Triclabendazole] | 20.5 | 
8 | Oc1cc(Cl)ccc1Oc1ccc(Cl)cc1Cl [Triclosan] | 0 | 
9 | CN1CCN(CCCN2c3ccccc3Sc3ccc(C(F)(F)F)cc32)CC1 [Trifluoperazine 2HCl] | 0 | 
10 | O=c1[nH]c(=O)n([C@H]2C[C@H](O)[C@@H](CO)O2)cc1C(F)(F)F [Trifluridine] | 0 | 
11 | CC(=O)Oc1cc(C(F)(F)F)ccc1C(=O)O [Triflusal] | 5.82 | 
12 | OC(CCN1CCCCC1)(c1ccccc1)C1CCCCC1 (stereo not shown) [Trihexyphenidyl hydrochloride] | 2.89 | 
13 | C[C@]12CC[C@H]3[C@@H](CC[C@@]45O[C@@H]4C(O)=C(C#N)C[C@]35C)[C@@H]1CC[C@@H]2O [Trilostane] | 0 | 
14 | CCC(COC(=O)c1cc(OC)c(OC)c(OC)c1)(c1ccccc1)N(C)C (stereo not shown) [Trimebutine maleate] | 0 | 
15 | COc1ccc(CN2CCNCC2)c(OC)c1OC [Trimetazidine dihydrochloride] | 0 | 
16 | CN1C(=O)OC(C)(C)C1=O [Trimethadione] | 0 | 
17 | COc1cc(Cc2cnc(N)nc2N)cc(OC)c1OC [Trimethoprim] | 4.05 | 
18 | CC(CN(C)C)CN1c2ccccc2CCc2ccccc21 (stereo not shown) [Trimipramine Maleate] | 0 | 
19 | CN(C)CCN(Cc1ccccc1)c1ccccn1 [Tripelennamine HCl] | 0 | 
20 | Cc1ccc(/C(=C\CN2CCCC2)c2ccccn2)cc1 [Triprolidine Hydrochloride] | 2.14 | 
21 | Cc1c(C)c2c(c(C)c1O)CCC(C)(COc1ccc(CC3SC(=O)NC3=O)cc1)O2 (stereo not shown) [Troglitazone (CS-045)] | 5.13 | 
22 | NC(CO)(CO)CO [Trometamol] | 3.46 | 
23 | CN1[C@@H]2CC[C@H]1C[C@@H](OC(=O)c1c[nH]c3ccccc13)C2 [Tropisetron HCl] |  | 30.45
24 | CN1[C@@H]2CC[C@H]1C[C@@H](OC(=O)c1c[nH]c3ccccc13)C2 [Tropisetron] |  | 6.575
25 | O=C(O[C@H]1C[C@H]2CC[C@@H](C1)[N+]21CCCC1)C(O)(c1ccccc1)c1ccccc1 [Trospium chloride] | 14.5 | 
26 | C[C@@H]1O[C@@H](OC[C@H]2O[C@@H](Oc3c(-c4ccc(OCCO)c(OCCO)c4)oc4cc(OCCO)cc(O)c4c3=O)[C@H](O)[C@@H](O)[C@@H]2O)[C@H](O)[C@H](O)[C@H]1O [Troxerutin] | 0 | 

Row | SMILES | inhibition at 100 µM [%] | %inhibition [%]
27 | COc1cc(C(=O)NC2CCCNC2)cc(OC)c1OC (stereo not shown) [Troxipide] | 19.2 | 
28 | CC[C@H]1OC(=O)C[C@@H](O)[C@H](C)[C@@H](O[C@@H]2O[C@H](C)[C@@H](O[C@H]3C[C@@](C)(O)[C@@H](O)[C@H](C)O3)[C@H](N(C)C)[C@H]2O)[C@@H](CC=O)C[C@@H](C)C(=O)/C=C/C(C)=C/[C@@H]1CO[C@@H]1O[C@H](C)[C@@H](O)[C@@H](OC)[C@H]1OC [Tylosin tartrate] | 0 | 
29 | CCCCOC(=O)c1ccccc1Nc1cccc(C(F)(F)F)c1 [Ufenamate] | 7.76 | 
30 | CC(=O)[C@@]1(O)CC[C@H]2[C@@H]3CCC4=CC(=O)CCC4=C3[C@@H](c3ccc(N(C)C)cc3)C[C@@]21C [Ulipristal] | 0.321 | 
31 | CC(C)Nc1cc(-c2c[nH]c(C(=O)N[C@H](CO)c3cccc(Cl)c3)c2)c(Cl)cn1 [Ulixertinib (BVD-523, VRT752271)] | 24.8 | 
32 | OC(c1ccccc1)(c1ccccc1)C12CC[N+](CCOCc3ccccc3)(CC1)CC2 [Umeclidinium bromide] | 0 | 
33 | Cn1ncc(Cl)c1-c1cc(C(=O)N[C@H](CN)Cc2ccc(F)c(F)c2)oc1Cl [Uprosertib (GSK2141795)] | 0 | 
34 | O=c1cc[nH]c(=O)[nH]1 [Uracil] | 0 | 
35 | COc1ccccc1N1CCN(CCCNc2cc(=O)n(C)c(=O)n2C)CC1 [Urapidil HCl] | 2.64 | 
36 | CCOC(N)=O [Urethane] | 0 | 
37 | O=c1ccn([C@@H]2O[C@H](CO)[C@@H](O)[C@H]2O)c(=O)[nH]1 [Uridine] | 0 | 
38 | C[C@H](CCC(=O)O)[C@H]1CC[C@H]2[C@@H]3[C@@H](O)C[C@@H]4C[C@H](O)CC[C@]4(C)[C@H]3CC[C@]12C [Ursodiol] | 0 | 
39 | Cc1ccc(NC(=O)C2(c3ccc4c(c3)OC(F)(F)O4)CC2)nc1-c1cccc(C(=O)O)c1 [VX-809 (Lumacaftor)] | 0 | 
40 | CC(C)[C@H](N)C(=O)OCCOCn1cnc2c(=O)nc(N)[nH]c21 [Valaciclovir HCl] | 39.4 | 
41 | COc1cc2c(cc1OC)[C@H]1C[C@@H](OC(=O)[C@@H](N)C(C)C)[C@H](CC(C)C)CN1CC2 [Valbenazine tosylate] | 13.2 | 
42 | Cc1onc(-c2ccccc2)c1-c1ccc(S(N)(=O)=O)cc1 [Valdecoxib] | 9.12 | 
43 | CC(C)[C@H](N)C(=O)OCC(CO)OCn1cnc2c(=O)nc(N)[nH]c21 (stereo partly shown) [Valganciclovir HCl] | 0 | 
44 | C=C[C@]1(C)C[C@@H](OC(=O)CSC(C)(C)CNC(=O)[C@H](N)C(C)C)[C@]2(C)[C@H](C)CC[C@]3(CCC(=O)[C@H]32)[C@@H](C)[C@@H]1O [Valnemulin HCl] | 23.1 | 
45 | CCCC(CCC)C(=O)O [Valproic acid sodium salt (Sodium valproate)] |  | 16.22
46 | CCCC(CCC)C(=O)O [Valproic acid] |  | 0
47 | CCCC(CCC)C(N)=O [Valpromide] | 13.2 | 
48 | CCCCC(=O)N(Cc1ccc(-c2ccccc2-c2nnn[nH]2)cc1)[C@H](C(=O)O)C(C)C [Valsartan] | 31.1 | 
49 | CN[C@H](CC(C)C)C(=O)N[C@H]1C(=O)N[C@@H](CC(N)=O)C(=O)N[C@H]2C(=O)N[C@H]3C(=O)N[C@H](C(=O)N[C@H](C(=O)O)c4cc(O)cc(O)c4-c4cc3ccc4O)[C@H](O)c3ccc(c(Cl)c3)Oc3cc2cc(c3O[C@@H]2O[C@H](CO)[C@@H](O)[C@H](O)[C@H]2O[C@H]2C[C@](C)(N)[C@H](O)[C@H](C)O2)Oc2ccc(cc2Cl)[C@H]1O [Vancomycin HCl] | 0 | 
50 | COc1cc2/c(=N/c3ccc(Br)cc3F)nc[nH]c2cc1OCC1CCN(C)CC1 [Vandetanib (ZD6474)] | 35.2 | 
51 | CCCc1nc(C)c2c(O)nc(-c3cc(S(=O)(=O)N4CCN(CC)CC4)ccc3OCC)nn12 [Vardenafil HCl Trihydrate] | 3.9 | 
52 | c1cnc2cc3c(cc2n1)[C@@H]1CNC[C@H]3C1 [Varenicline Tartrate] | 0 | 
